One assay addresses hNav1.3 (Homo sapiens, UniProt Q9NY46). Put plainly: cell-based. The note with it: IonWorks Quattro, read-out: IWQ Use Nav1.3.
Another assay addresses hNav1.5 (Homo sapiens, UniProt Q14524). Kind of assay: cell-based.
The mark [1] stands for this setting: IonWorks Quattro, Use, read-out: IWQ Use Nav1.5.

Where two headings read alike, the source gives them in different places. Positions of bridges follow the written chain, without caps; N, C: chain ends. Residues, ends and D or L forms follow the SMILES beside them.

Sequence of hNav1.5 (Q14524 whole entry, looked up): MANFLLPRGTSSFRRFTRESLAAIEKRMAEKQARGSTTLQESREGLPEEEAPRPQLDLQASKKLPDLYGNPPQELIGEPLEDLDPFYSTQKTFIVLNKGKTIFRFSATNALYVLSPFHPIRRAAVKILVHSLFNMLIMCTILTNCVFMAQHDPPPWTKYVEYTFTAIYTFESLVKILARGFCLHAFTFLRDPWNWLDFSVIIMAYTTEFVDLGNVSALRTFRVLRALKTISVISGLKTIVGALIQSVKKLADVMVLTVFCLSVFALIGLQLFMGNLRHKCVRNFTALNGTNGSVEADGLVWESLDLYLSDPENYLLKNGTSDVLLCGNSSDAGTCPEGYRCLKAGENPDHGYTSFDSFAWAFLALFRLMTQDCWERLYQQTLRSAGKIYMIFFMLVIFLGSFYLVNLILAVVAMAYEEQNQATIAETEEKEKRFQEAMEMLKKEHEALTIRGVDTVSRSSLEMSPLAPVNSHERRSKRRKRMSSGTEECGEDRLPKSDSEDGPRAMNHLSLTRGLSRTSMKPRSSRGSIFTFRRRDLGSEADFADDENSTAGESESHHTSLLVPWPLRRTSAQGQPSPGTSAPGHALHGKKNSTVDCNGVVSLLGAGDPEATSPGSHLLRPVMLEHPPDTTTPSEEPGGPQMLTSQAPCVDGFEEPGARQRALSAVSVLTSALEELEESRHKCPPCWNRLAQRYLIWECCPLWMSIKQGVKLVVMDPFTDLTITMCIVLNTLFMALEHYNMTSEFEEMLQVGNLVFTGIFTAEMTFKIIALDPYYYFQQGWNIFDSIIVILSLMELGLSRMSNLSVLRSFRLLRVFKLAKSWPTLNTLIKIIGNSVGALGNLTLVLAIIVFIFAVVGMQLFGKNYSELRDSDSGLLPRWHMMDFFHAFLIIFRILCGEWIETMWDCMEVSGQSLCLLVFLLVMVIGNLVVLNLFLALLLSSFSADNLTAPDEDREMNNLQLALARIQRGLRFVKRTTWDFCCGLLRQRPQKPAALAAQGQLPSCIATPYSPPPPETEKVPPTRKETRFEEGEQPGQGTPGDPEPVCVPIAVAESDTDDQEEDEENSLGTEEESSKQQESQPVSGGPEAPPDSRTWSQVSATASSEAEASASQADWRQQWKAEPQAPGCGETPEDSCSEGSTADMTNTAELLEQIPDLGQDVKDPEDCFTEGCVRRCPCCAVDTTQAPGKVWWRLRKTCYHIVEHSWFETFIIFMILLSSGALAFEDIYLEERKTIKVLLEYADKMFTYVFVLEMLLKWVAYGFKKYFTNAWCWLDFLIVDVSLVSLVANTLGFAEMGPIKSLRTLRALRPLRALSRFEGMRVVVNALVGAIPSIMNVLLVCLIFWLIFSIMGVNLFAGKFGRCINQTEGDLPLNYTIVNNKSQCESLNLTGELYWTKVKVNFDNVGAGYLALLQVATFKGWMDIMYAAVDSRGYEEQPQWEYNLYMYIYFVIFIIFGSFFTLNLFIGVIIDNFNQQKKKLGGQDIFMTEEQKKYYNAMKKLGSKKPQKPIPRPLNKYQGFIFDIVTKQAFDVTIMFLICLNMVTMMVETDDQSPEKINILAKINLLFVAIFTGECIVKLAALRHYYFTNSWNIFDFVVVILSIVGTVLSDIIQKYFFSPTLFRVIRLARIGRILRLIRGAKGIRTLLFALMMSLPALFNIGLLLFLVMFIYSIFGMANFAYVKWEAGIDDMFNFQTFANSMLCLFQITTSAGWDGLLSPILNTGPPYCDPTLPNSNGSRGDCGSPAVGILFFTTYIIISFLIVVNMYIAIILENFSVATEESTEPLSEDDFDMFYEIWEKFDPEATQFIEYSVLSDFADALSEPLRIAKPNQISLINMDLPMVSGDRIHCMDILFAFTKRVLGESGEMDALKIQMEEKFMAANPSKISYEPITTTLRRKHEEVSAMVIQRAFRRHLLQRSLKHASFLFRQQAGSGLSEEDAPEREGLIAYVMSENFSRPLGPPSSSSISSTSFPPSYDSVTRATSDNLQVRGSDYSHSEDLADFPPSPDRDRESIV
Sequence of hNav1.3 (Q9NY46 whole entry, looked up): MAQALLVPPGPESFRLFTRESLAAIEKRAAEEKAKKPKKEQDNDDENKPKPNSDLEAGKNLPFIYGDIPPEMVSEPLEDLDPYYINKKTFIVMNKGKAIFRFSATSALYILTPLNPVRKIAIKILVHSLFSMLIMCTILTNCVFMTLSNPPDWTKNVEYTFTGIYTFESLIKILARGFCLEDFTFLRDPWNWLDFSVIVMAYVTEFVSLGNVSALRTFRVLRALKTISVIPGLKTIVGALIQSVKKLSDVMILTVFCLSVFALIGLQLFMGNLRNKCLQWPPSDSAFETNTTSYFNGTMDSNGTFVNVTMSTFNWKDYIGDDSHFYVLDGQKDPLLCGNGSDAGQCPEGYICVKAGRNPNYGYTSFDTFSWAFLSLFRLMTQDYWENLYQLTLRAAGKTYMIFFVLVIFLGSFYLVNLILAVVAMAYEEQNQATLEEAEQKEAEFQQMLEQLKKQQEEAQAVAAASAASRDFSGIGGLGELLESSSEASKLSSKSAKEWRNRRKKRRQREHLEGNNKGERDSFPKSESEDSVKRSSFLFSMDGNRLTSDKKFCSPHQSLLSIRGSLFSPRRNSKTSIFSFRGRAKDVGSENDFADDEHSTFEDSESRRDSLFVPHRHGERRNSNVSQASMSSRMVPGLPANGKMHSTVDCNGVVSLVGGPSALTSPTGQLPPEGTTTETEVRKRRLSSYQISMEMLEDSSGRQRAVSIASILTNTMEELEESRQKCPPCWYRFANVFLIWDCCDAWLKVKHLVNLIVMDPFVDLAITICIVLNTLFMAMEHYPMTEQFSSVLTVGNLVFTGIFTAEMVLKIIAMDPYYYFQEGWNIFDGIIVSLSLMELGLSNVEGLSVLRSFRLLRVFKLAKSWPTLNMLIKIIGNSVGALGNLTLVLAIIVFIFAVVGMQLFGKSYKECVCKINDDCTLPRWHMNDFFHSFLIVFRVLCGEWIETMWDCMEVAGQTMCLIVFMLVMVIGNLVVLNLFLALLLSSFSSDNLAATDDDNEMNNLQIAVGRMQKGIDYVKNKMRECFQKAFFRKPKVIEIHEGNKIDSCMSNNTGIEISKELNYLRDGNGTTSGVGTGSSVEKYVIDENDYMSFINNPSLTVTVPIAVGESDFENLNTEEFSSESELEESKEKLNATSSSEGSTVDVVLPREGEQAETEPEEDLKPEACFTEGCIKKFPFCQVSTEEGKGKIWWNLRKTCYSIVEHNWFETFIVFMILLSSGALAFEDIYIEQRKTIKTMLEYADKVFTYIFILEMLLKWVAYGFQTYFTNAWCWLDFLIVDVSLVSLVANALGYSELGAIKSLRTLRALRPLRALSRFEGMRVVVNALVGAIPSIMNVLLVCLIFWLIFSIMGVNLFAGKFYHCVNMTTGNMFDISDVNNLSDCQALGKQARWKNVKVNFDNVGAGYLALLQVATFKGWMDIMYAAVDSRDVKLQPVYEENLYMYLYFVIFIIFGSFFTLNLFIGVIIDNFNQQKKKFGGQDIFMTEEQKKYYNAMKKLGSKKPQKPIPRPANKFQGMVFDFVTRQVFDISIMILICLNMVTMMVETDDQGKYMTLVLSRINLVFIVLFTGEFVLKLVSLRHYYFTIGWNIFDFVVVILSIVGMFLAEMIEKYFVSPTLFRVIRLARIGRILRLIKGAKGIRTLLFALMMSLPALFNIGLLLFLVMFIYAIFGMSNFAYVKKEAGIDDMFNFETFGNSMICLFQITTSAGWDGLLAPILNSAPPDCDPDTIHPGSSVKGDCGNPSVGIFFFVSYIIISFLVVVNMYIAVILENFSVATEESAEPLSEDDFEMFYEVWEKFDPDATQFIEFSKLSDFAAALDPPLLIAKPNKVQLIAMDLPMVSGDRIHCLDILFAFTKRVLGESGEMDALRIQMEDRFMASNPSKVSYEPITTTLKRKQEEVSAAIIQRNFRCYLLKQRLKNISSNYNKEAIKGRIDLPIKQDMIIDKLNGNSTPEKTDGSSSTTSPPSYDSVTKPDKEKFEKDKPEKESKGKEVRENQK

Consider `CC[C@H](C)[C@@H]1NC(=O)[C@@H]2CSSC[C@@H]3NC(=O)[C@H](C(C)C)NC(=O)[C@H](CC(C)C)NC(=O)[C@H](CC(N)=O)NC(=O)[C@@H]4CCCN4C(=O)[C@H](CCCNC(=N)N)NC(=O)[C@H](CSSC[C@H](NC(=O)[C@@H](N)CC(=O)O)C(=O)N[C@@H](CC(C)C)C(=O)NCC(=O)N[C@@H](Cc4ccccc4)C(=O)N[C@@H](CCSC)C(=O)N[C@@H](CCCNC(=N)N)C(=O)N[C@@H](CCCCN)C(=O)N2)NC(=O)[C@H](CSSC[C@@H](C(=O)N[C@@H](CCCCN)C(=O)N[C@@H](C)C(=O)N[C@H](C(=O)N[C@@H](Cc2ccccc2)C(N)=O)C(C)C)NC(=O)[C@H](Cc2c[nH]c4ccccc24)NC(=O)[C@H](CCCCN)NC(=O)[C@H](Cc2cnc[nH]2)NC(=O)[C@H]([C@@H](C)O)NC(=O)[C@H](CCCNC(=N)N)NC(=O)[C@H](CO)NC3=O)NC(=O)[C@H](CCCCN)NC(=O)[C@H](CC(=O)O)NC(=O)[C@H](CC(N)=O)NC(=O)[C@H](CC(=O)O)NC(=O)[C@@H]2CCCN2C1=O` [compound 14] (H-DCLGFMRKCIPDNDKCCRPNLVCSRTHKWCKAVF-NH2; disulfide 2-17, 9-23, 16-30), for which the IC50 on hNav1.3 (Table 25, use, […]) turned out to be 0.77 µM; on hNav1.5 (Table 25, IonWorks Quattro, use, […], read-out: IWQ Use Nav1.5) it was 20.6 µM.
For the compound `CC[C@H](C)[C@@H]1NC(=O)[C@@H]2CSSC[C@@H]3NC(=O)[C@H](C(C)C)NC(=O)[C@H](CC(C)C)NC(=O)[C@H](CC(N)=O)NC(=O)[C@@H]4CCCN4C(=O)[C@H](CCCNC(=N)N)NC(=O)[C@H](CSSC[C@H](NC(=O)[C@@H](N)CC(=O)O)C(=O)N[C@@H](CC(C)C)C(=O)NCC(=O)N[C@@H](Cc4ccccc4)C(=O)N[C@@H](CCSC)C(=O)N[C@@H](CCCNC(=N)N)C(=O)N[C@@H](CCCCN)C(=O)N2)NC(=O)[C@H](CSSC[C@@H](C(=O)N[C@@H](CCCCN)C(=O)N[C@@H](Cc2ccc(O)cc2)C(=O)N[C@H](C(=O)N[C@@H](Cc2ccccc2)C(N)=O)C(C)C)NC(=O)[C@H](Cc2c[nH]c4ccccc24)NC(=O)[C@H](CCCCN)NC(=O)[C@H](Cc2cnc[nH]2)NC(=O)[C@H]([C@@H](C)O)NC(=O)[C@H](CCCNC(=N)N)NC(=O)[C@H](CO)NC3=O)NC(=O)[C@H](CCCCN)NC(=O)[C@H](CC(=O)O)NC(=O)[C@H](CC(N)=O)NC(=O)[C@H](CCCCN)NC(=O)[C@@H]2CCCN2C1=O` [compound 42] (H-DCLGFMRKCIPKNDKCCRPNLVCSRTHKWCKYVF-NH2; disulfide 2-17, 9-23, 16-30), the IC50 at hNav1.3 (Use) came to 0.09 µM; against hNav1.5 (IWQ Use Nav1.5 (μM)) it was 6.51 µM.
Take `CC[C@H](C)[C@@H]1NC(=O)[C@@H]2CSSC[C@@H]3NC(=O)[C@H](C(C)C)NC(=O)[C@H](CC(C)C)NC(=O)[C@H](CC(N)=O)NC(=O)[C@@H]4CCCN4C(=O)[C@H](CCCNC(=N)N)NC(=O)[C@H](CSSC[C@H](NC(=O)[C@@H](N)CC(=O)O)C(=O)N[C@@H](CC(C)C)C(=O)NCC(=O)N[C@@H](Cc4ccccc4)C(=O)N[C@@H](CCSC)C(=O)N[C@@H](CCCNC(=N)N)C(=O)N[C@@H](CCCCN)C(=O)N2)NC(=O)[C@H](CSSC[C@@H](C(=O)N[C@@H](CCCCN)C(=O)N[C@@H](Cc2ccc(O)cc2)C(N)=O)NC(=O)[C@H](Cc2c[nH]c4ccccc24)NC(=O)[C@H](CCCCN)NC(=O)[C@H](Cc2cnc[nH]2)NC(=O)[C@H]([C@@H](C)O)NC(=O)[C@H](CCCNC(=N)N)NC(=O)[C@H](CO)NC3=O)NC(=O)[C@H](CCCCN)NC(=O)[C@H](CC(=O)O)NC(=O)[C@H](CC(N)=O)NC(=O)[C@H](CC(=O)O)NC(=O)[C@@H]2CCCN2C1=O` [compound 416] (H-DCLGFMRKCIPDNDKCCRPNLVCSRTHKWCKY-NH2; disulfide 2-17, 9-23, 16-30): the IC50 came out at 0.88 µM on hNav1.3 (use-dependent, […]) and 8.64 µM at hNav1.5 (IonWorks Quattro, use-dependent, […], read-out: IWQ Use Nav1.5).
For the compound `CC[C@H](C)[C@@H]1NC(=O)[C@@H]2CSSC[C@@H]3NC(=O)[C@H](C(C)C)NC(=O)[C@H](CC(C)C)NC(=O)[C@H](CC(N)=O)NC(=O)[C@@H]4CCCN4C(=O)[C@H](CCCNC(=N)N)NC(=O)[C@H](CSSC[C@H](NC(=O)[C@@H](N)CC(=O)O)C(=O)N[C@@H](CC(C)C)C(=O)NCC(=O)N[C@@H](Cc4ccccc4)C(=O)N[C@@H](CCSC)C(=O)N[C@@H](CCCNC(=N)N)C(=O)N[C@@H](CCCCN)C(=O)N2)NC(=O)[C@H](CSSC[C@@H](C(=O)N[C@@H](CCCCN)C(=O)N[C@@H](Cc2ccc(O)cc2)C(=O)N[C@H](C(=O)N[C@@H](Cc2ccccc2)C(N)=O)C(C)C)NC(=O)[C@H](Cc2c[nH]c4ccccc24)NC(=O)[C@H](CCCCN)NC(=O)[C@H](Cc2cnc[nH]2)NC(=O)[C@H]([C@@H](C)O)NC(=O)[C@H](CCCNC(=N)N)NC(=O)[C@H](CO)NC3=O)NC(=O)[C@H](CCCCN)NC(=O)[C@H](CC(=O)O)NC(=O)[C@H](CCCCN)NC(=O)[C@H](CC(=O)O)NC(=O)[C@@H]2CCCN2C1=O` [compound 48] (H-DCLGFMRKCIPDKDKCCRPNLVCSRTHKWCKYVF-NH2; disulfide 2-17, 9-23, 16-30), the results for the IC50 at hNav1.3 (Use) and at hNav1.5 (setting [1]) were 0.13 µM and 9.72 µM, respectively.
Turning to `CSCC[C@@H]1NC(=O)[C@H](Cc2ccccc2)NC(=O)CNC(=O)[C@H](CC(C)C)NC(=O)[C@@H](NC(=O)[C@@H](N)CC(=O)O)CSSC[C@@H]2NC(=O)[C@@H]3CSSC[C@@H](C(=O)N[C@@H](CCCCN)C(=O)N[C@@H](Cc4ccc(O)cc4)C(=O)N[C@H](C(=O)N[C@@H](Cc4ccccc4)C(N)=O)C(C)C)NC(=O)[C@H](Cc4c[nH]c5ccccc45)NC(=O)[C@H](CCCCN)NC(=O)[C@H](Cc4cnc[nH]4)NC(=O)[C@H]([C@@H](C)O)NC(=O)[C@H](CCCNC(=N)N)NC(=O)[C@H](CO)NC(=O)[C@H](CSSC[C@H](NC(=O)[C@H](CCCCN)NC(=O)[C@H](CCCNC(=N)N)NC1=O)C(=O)N[C@@H](Cc1ccccc1)C(=O)N1CCC[C@H]1C(=O)N[C@@H](CC(=O)O)C(=O)N[C@@H](CC(N)=O)C(=O)N[C@@H](CC(=O)O)C(=O)N[C@@H](CCCCN)C(=O)N3)NC(=O)[C@H](C(C)C)NC(=O)[C@H](CC(C)C)NC(=O)[C@H](CC(N)=O)NC(=O)[C@@H]1CCCN1C(=O)[C@H](CCCNC(=N)N)NC2=O` [compound 302] (H-DCLGFMRKCFPDNDKCCRPNLVCSRTHKWCKYVF-NH2; disulfide 2-17, 9-23, 16-30), the IC50 stood at 0.08 µM on hNav1.3 (Use) and 5.33 µM at hNav1.5 (setting [1]).
As for `CC[C@H](C)[C@@H]1NC(=O)[C@@H]2CSSC[C@@H]3NC(=O)[C@H](CCCNC(=N)N)NC(=O)[C@H](CC(C)C)NC(=O)[C@H](CC(N)=O)NC(=O)[C@@H]4CCCN4C(=O)[C@H](CCCNC(=N)N)NC(=O)[C@H](CSSC[C@H](NC(=O)[C@@H](N)CC(=O)O)C(=O)N[C@@H](CC(C)C)C(=O)NCC(=O)N[C@@H](Cc4ccccc4)C(=O)N[C@@H](CCSC)C(=O)N[C@@H](CCCNC(=N)N)C(=O)N[C@@H](CCCCN)C(=O)N2)NC(=O)[C@H](CSSC[C@@H](C(=O)N[C@@H](CCCCN)C(=O)N[C@@H](Cc2ccc(O)cc2)C(=O)N[C@H](C(=O)N[C@@H](Cc2ccccc2)C(N)=O)C(C)C)NC(=O)[C@H](Cc2c[nH]c4ccccc24)NC(=O)[C@H](CCCCN)NC(=O)[C@H](Cc2cnc[nH]2)NC(=O)[C@H]([C@@H](C)O)NC(=O)[C@H](CCCNC(=N)N)NC(=O)[C@H](CO)NC3=O)NC(=O)[C@H](CCCCN)NC(=O)[C@H](CC(=O)O)NC(=O)[C@H](CC(N)=O)NC(=O)[C@H](CC(=O)O)NC(=O)[C@@H]2CCCN2C1=O` [compound 158] (H-DCLGFMRKCIPDNDKCCRPNLRCSRTHKWCKYVF-NH2; disulfide 2-17, 9-23, 16-30), the IC50 turned out to be 0.03 µM at hNav1.3 (Use) and 8.2 µM against hNav1.5 (IWQ Use Nav1.5 (μM)).

Values taken from patent US9340590B2 (priority 2011, dated 2016).
